Test results as given in PubChem BioAssay (NCI).
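GI50 marks 50% less growth. TGI marks complete inhibition of growth.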

Legend:
Assay in all cases: NCI anticancer screen, dose series, 384-well format
A549 NSCLC = test system: A549 NSCLC
CCRF-CEM leukemia = test system: CCRF-CEM leukemia
HCT-15 colon = test system: HCT-15 colon
M14 melanoma = test system: M14 melanoma
MDA-MB-435 melanoma = test system: MDA-MB-435 melanoma
MOLT-4 leukemia = test system: MOLT-4 leukemia
OVCAR-4 ovarian = test system: OVCAR-4 ovarian
OVCAR-5 ovarian = test system: OVCAR-5 ovarian
SF-539 CNS = test system: SF-539 CNS
SK-MEL-2 melanoma = test system: SK-MEL-2 melanoma
SNB-75 CNS = test system: SNB-75 CNS
SW-620 colon = test system: SW-620 colon
UO-31 renal = test system: UO-31 renal

Question: For `C=CC(=O)N1CCC(CNc2ncnc(N)c2-c2ccc(Oc3ccccc3)cc2)CC1`, which GI50 (A549 NSCLC) is on record?
Answer: 21 µM

Question: What about the TGI (A549 NSCLC) of the same compound?
Answer: 55.4 µM

Question: What about the GI50 (CCRF-CEM leukemia) of the same compound?
Answer: 17.2 µM

Question: And the TGI (CCRF-CEM leukemia)?
Answer: 31 µM

Question: What about the GI50 (HCT-15 colon) of the same compound?
Answer: 23.6 µM

Question: And the TGI (HCT-15 colon)?
Answer: 60 µM

Question: And the GI50 (M14 melanoma)?
Answer: 29.6 µM

Question: And the TGI (M14 melanoma)?
Answer: 77.4 µM

Question: What about the GI50 (MDA-MB-435 melanoma) of the same compound?
Answer: 28.7 µM

Question: And the TGI (MDA-MB-435 melanoma)?
Answer: > 73.3 µM

Question: What about the GI50 (MOLT-4 leukemia) of the same compound?
Answer: 14.5 µM

Question: And the TGI (MOLT-4 leukemia)?
Answer: 27.7 µM

Question: What about the GI50 (OVCAR-4 ovarian) of the same compound?
Answer: 21.2 µM

Question: And the TGI (OVCAR-4 ovarian)?
Answer: 69.7 µM

Question: And the GI50 (OVCAR-5 ovarian)?
Answer: 38.1 µM

Question: And the TGI (OVCAR-5 ovarian)?
Answer: > 100 µM

Question: What about the GI50 (SF-539 CNS) of the same compound?
Answer: 20.9 µM

Question: What about the TGI (SF-539 CNS) of the same compound?
Answer: > 58.6 µM

Question: What about the GI50 (SK-MEL-2 melanoma) of the same compound?
Answer: 20.5 µM

Question: And the TGI (SK-MEL-2 melanoma)?
Answer: 36.9 µM

Question: And the GI50 (SNB-75 CNS)?
Answer: 15 µM

Question: And the TGI (SNB-75 CNS)?
Answer: 36.5 µM

Question: And the GI50 (SW-620 colon)?
Answer: 18.6 µM

Question: And the TGI (SW-620 colon)?
Answer: 34 µM

Question: What about the GI50 (UO-31 renal) of the same compound?
Answer: 22.3 µM

Question: What about the TGI (UO-31 renal) of the same compound?
Answer: > 100 µM
